Assay results as given in patent US20260365611A1, “CRYSTALLINE SALTS OF 2-PHENYL-2-AMINOCYCLOHEXAN-1-ONE DERIVATIVES” (priority 2023, published 2026).
Counter-ions that a name gives are not always drawn. Like-named read-outs stand apart in the source and are kept apart here.

Assays:
Type in all cases: physicochemical
[1] = Dynamic Vapor Sorption (DVS)
Procedure: 1R HCl Form 1 was analyzed by DVS (0-90-O-90-0% RH at 25 °C). The DVS behavior is shown in FIGS. 5(a) and (b), wherein 1 plots cycle 1 desorption, 2 plots cycle 2 sorption, 3 plots cycle 2 desorption, 4 plots cycle 1 sorption, 5 plots target % P/Po and 6 plots dm dry line, wherein P is the vapor pressure, Po is the saturation vapor pressure and P/Po is equivalent to % relative humidity for water.

Sublimation on heating = conditions: heated up to 300 °C
Procedure: The Form 1 polymorph was heated up to 300 °C. […] Polymorph screening of the deuterated 1R HCl salt of Example 2 (Form 1).

[2] = Thermo-Gravimetric Analysis (TGA)
Procedure: In the examples below, the solids are analyzed by XRPD to determine if they are crystalline and if so, by DSC to determine melting point and TGA to determine if hydrated/solvated.

[3] = Approximate solubility in 20 solvents; conditions: for solubility: RT
Procedure: The approximate solubility of the crystalline hydrochloride salt product of Example 1 (1R HCl Form 1) was estimated in 20 solvents as follows: Approximately 10 mg of the product of Example 1 is placed into a 4.0 mL vial, to which 25 μL of solvent at RT is added, and then the vial with its contents is shaken and stirred. If no clear solution is obtained, another 25 μL of solvent is added to the vial and then the vial with its contents is shaken and stirred again. This process is repeated until 4.0 mL solvent is added, and then the contents of the vial are stirred overnight.

[4] = Crystal form conversion on drying
Procedure: About 0.25 mL of ethyl acetate was added to a glass vial containing about 40 mg of freebase (R)-2-(4-fluorophenyl)-2-(methylamino)cyclohexan-1-one. One molar equivalent of citric acid was added to the vial, and the contents were stirred at room temperature.

[5] = drying in a vacuum oven at room temperature

For CN[C@@]1(c2ccc(F)cc2)CCCCC1=O [1R HCl Form 1, (R)-2-(4-fluorophenyl)-2-(methylamino)cyclohexan-1-one hydrochloride Form 1], the “DVS moisture sorption behavior” value ([1]; 25 °C, 0-90-0-90-0% RH) was “absorbs significant moisture above ~80% RH but readily releases the moisture at lower humidity”, the “Crystal form of post-DVS sample” value ([1]; post-DVS, kept at 0% RH for 3 days) was “same crystal form as the starting solids” and the Sublimation (Sublimation on heating) was “can be sublimed from a solid phase to gas phase without passing through the liquid phase”. For the same molecule, the “Form of material recovered from sublimation” value (Sublimation on heating; XRPD) was “same XRPD pattern as 1R HCl Form 1”, the “Hydrate/solvate state from TGA” value ([2]; heated from room temperature to 100 °C) was “not a hydrate or solvate” and the TGA weight loss ([2]; room temperature to 100 °C) was 0.34%. For the same molecule, the solubility ([3]; 1,4-dioxane, organic solvent or mixture, 1,4-Dioxane, read-out: Solubility) was 2.9 to 3.3 mg/mL, the solubility ([3]; 2-methf, organic solvent or mixture, 2-MeTHF, read-out: Solubility) was under 2.6 mg/mL and the solubility ([3]; DCM) was 194 to 388 mg/mL. For the same molecule, the solubility ([3]; DMF) was 192 to 384 mg/mL, the solubility ([3]; DMSO) was over 395 mg/mL and the solubility ([3]; EtOH) was 215 to 431 mg/mL. For the same molecule, the solubility ([3]; MeOH) was over 486 mg/mL, the solubility ([3]; Water) was over 464 mg/mL and the solubility ([3]; acetone, organic solvent or mixture, Acetone, read-out: Solubility) was 8.8 to 9.7 mg/mL. The solubility ([3]; acn, organic solvent or mixture, ACN, read-out: Solubility) was 32 to 38 mg/mL, the solubility ([3]; dcm, organic solvent or mixture, DCM, read-out: Solubility) was over 300 mg/mL and the solubility ([3]; dmf, organic solvent or mixture, DMF, read-out: Solubility) was over 300 mg/mL. For the same molecule, the solubility ([3]; dmso, organic solvent or mixture, DMSO, read-out: Solubility) was over 300 mg/mL, the “Solubility (in words)” value ([3]; esters, ketones, ethers, and alkanes) was “Limited or no solubility” and the solubility ([3]; etoac, organic solvent or mixture, EtOAc, read-out: Solubility) was under 2.6 mg/mL. For the same molecule, the solubility ([3]; etoh, organic solvent or mixture, EtOH, read-out: Solubility) was over 300 mg/mL, the solubility ([3]; heptane, organic solvent or mixture, Heptane, read-out: Solubility) was under 2.7 mg/mL and the solubility ([3]; ipa, organic solvent or mixture, IPA, read-out: Solubility) was 50 to 67 mg/mL. It also gave a solubility ([3]; ipac, read-out: Solubility) of under 2.4 mg/mL, a solubility ([3]; mek, read-out: Solubility) of 3.1 to 3.7 mg/mL and a solubility ([3]; meoh, organic solvent or mixture, MeOH, read-out: Solubility) of over 300 mg/mL. For the same molecule, the solubility ([3]; mibk, read-out: Solubility) was under 2.7 mg/mL, the solubility ([3]; mtbe, organic solvent or mixture, MTBE, read-out: Solubility) was under 2.5 mg/mL and the solubility ([3]; npa, read-out: Solubility) was 51 to 69 mg/mL. It also gave a solubility ([3]; thf, organic solvent or mixture, THF, read-out: Solubility) of under 3 mg/mL, a solubility ([3]; toluene, organic solvent or mixture, Toluene, read-out: Solubility) of under 2.7 mg/mL and a solubility ([3]; water, read-out: Solubility) of over 300 mg/mL.

With CN[C@@]1(c2ccc(F)cc2)CCCCC1=O [Cit-1, (R)-2-(4-fluorophenyl)-2-(methylamino)cyclohexan-1-one Cit-1] the Crystal form conversion [4, 5] was “transitioned to a different XRPD pattern”.

In the case of CN[C@@]1(c2ccc(F)cc2)CCCCC1=O [Cit-2, (R)-2-(4-fluorophenyl)-2-(methylamino)cyclohexan-1-one Cit-2], the TGA weight loss ([2]; room temperature to 100 °C) is reported as “about 1.33%”.

For CN[C@@]1(c2ccc(F)cc2)CCCCC1=O [Fum-1, (R)-2-(4-fluorophenyl)-2-(methylamino)cyclohexan-1-one Fum-1], the TGA weight loss ([2]; by 100 °C) was “about 0.66%”.

In the case of CN[C@@]1(c2ccc(F)cc2)CCCCC1=O [Glyc-1, (R)-2-(4-fluorophenyl)-2-(methylamino)cyclohexan-1-one Glyc-1], the TGA weight loss ([2]; room temperature to 100 °C) is reported as “about 1.89%”.

For CN[C@@]1(c2ccc(F)cc2)CCCCC1=O [Hip-1, (R)-2-(4-fluorophenyl)-2-(methylamino)cyclohexan-1-one Hip-1], the TGA weight loss ([2]; room temperature to 100 °C) was “about 0.69%”.

With CN[C@@]1(c2ccc(F)cc2)CCCCC1=O [MSA-1, (R)-2-(4-fluorophenyl)-2-(methylamino)cyclohexan-1-one MSA-1] the TGA weight loss ([2]; by 100 °C) was “about 0.01%”.

With CN[C@@]1(c2ccc(F)cc2)CCCCC1=O [Mal-1, (R)-2-(4-fluorophenyl)-2-(methylamino)cyclohexan-1-one Mal-1] the TGA weight loss ([2]; by 100 °C) was “about 0.16%”.

With CN[C@@]1(c2ccc(F)cc2)CCCCC1=O [Mal-2, (R)-2-(4-fluorophenyl)-2-(methylamino)cyclohexan-1-one Mal-2] the TGA weight loss ([2]; by 100 °C) was “about 0.11%”.

In the case of CN[C@@]1(c2ccc(F)cc2)CCCCC1=O [Mali-1, (R)-2-(4-fluorophenyl)-2-(methylamino)cyclohexan-1-one-L-Mali-1], the TGA weight loss ([2]; room temperature to 100 °C) is reported as “about 0.70%”.

For CN[C@@]1(c2ccc(F)cc2)CCCCC1=O [Phos-1, (R)-2-(4-fluorophenyl)-2-(methylamino)cyclohexan-1-one Phos-1], the TGA weight loss ([2]; by 100 °C) was “about 0.11%”.

With CN[C@@]1(c2ccc(F)cc2)CCCCC1=O [Phos-2, (R)-2-(4-fluorophenyl)-2-(methylamino)cyclohexan-1-one Phos-2] the TGA weight loss ([2]; by 100 °C) was “about 0.90%”.

In the case of CN[C@@]1(c2ccc(F)cc2)CCCCC1=O [Sulfate-1, (R)-2-(4-fluorophenyl)-2-(methylamino)cyclohexan-1-one Sulfate-1], the TGA weight loss ([2]; by 100 °C, listed as sulfate salt) is reported as “about 0.08%”.

For CN[C@@]1(c2ccc(F)cc2)CCCCC1=O [Sulfate-2, (R)-2-(4-fluorophenyl)-2-(methylamino)cyclohexan-1-one Sulfate-2], the Crystal form conversion ([4]; wet cake dried at room temperature) was “a different XRPD diffractogram was obtained”.

With CN[C@@]1(c2ccc(F)cc2)CCCCC1=O [Sulfate-3, (R)-2-(4-fluorophenyl)-2-(methylamino)cyclohexan-1-one Sulfate-3] the Crystal form conversion ([4]; further dried with heating at 40 °C) was “a different XRPD diffractogram was obtained”.

In the case of CN[C@@]1(c2ccc(F)cc2)CCCCC1=O [Tar-2, (R)-2-(4-fluorophenyl)-2-(methylamino)cyclohexan-1-one Tar-2], the Crystal form conversion [4, 5] is reported as “transitioned into Tar-5”.

For CN[C@@]1(c2ccc(F)cc2)CCCCC1=O [Tar-3, (R)-2-(4-fluorophenyl)-2-(methylamino)cyclohexan-1-one Tar-3], the TGA weight loss ([2]; room temperature to 125 °C) was “about 9.95%”.

In the case of CN[C@@]1(c2ccc(F)cc2)CCCCC1=O [Tar-4, (R)-2-(4-fluorophenyl)-2-(methylamino)cyclohexan-1-one Tar-4], the Crystal form conversion [4, 5] is reported as “converted into Tar-6”.

For CN[C@@]1(c2ccc(F)cc2)CCCCC1=O [Tar-5, (R)-2-(4-fluorophenyl)-2-(methylamino)cyclohexan-1-one Tar-5], the TGA weight loss ([2]; by 100 °C) was “about 0.26%”.

In the case of CN[C@@]1(c2ccc(F)cc2)CCCCC1=O [Tar-6, (R)-2-(4-fluorophenyl)-2-(methylamino)cyclohexan-1-one Tar-6], the TGA weight loss ([2]; by 100 °C) is reported as “about 10.67%”.
